# Reference: publication PMC9981942, “Pharmacokinetics and tissue distribution of Ramulus Mori (Sangzhi) alkaloids in rats and its effects on liver enzyme activity” (Frontiers in Pharmacology, 2023)
# Where “and” joins values, the source holds several entries; their conditions need not be identical. Equal entries are not always repeated. Where two headings read alike, the source gives them in different places.
# Key:
# rat CYP2C11 = biological target: T1, rat CYP2C11 (Rattus norvegicus, UniProt P08683); assay: Inhibition of CYP450s in rat liver microsomes, probe mephenytoin; conditions: RLMs; SZ-A 8.899 μg/mL, DNJ 20 μM, FA 5 μM, DAB 8 μM
# T1 sequence (P08683 1-500): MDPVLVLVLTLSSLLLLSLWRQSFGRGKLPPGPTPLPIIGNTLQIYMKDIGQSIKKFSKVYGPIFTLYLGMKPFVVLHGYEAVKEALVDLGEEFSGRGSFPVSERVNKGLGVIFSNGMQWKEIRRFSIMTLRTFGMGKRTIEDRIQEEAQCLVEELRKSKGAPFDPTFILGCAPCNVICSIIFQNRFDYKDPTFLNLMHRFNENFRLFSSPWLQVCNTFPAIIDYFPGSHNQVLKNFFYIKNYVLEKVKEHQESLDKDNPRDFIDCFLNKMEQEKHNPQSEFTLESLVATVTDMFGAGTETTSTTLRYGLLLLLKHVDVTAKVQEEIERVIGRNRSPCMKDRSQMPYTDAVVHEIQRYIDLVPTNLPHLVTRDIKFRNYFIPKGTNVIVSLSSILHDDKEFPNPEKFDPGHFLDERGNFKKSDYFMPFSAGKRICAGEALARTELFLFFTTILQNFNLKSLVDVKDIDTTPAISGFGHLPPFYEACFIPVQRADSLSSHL
# [1] = Identification of metabolites in HLMs/RLMs and rat plasma (Q-Extractive high-resolution MS); assay type: in vitro ADME, human; conditions: HLMs/RLMs and rat plasma reaction system
# Experimental: Furthermore, 5 μL of the supernatant was collected for LC-MS/MS analysis. The LC-MS/MS conditions were as follows: chromatographic column (XBridge™ Amide, 3.5 µm, 4.6 × 150 mm); mobile phase, water (0.1% ammonia) and acetonitrile, other conditions are the same as those in CYP450s inhibition study, with the following scan parameters: resolution, 70,000; AGC target, 3,000,000; maximum IT, 200 ms; and scan range, 50–600 m/z.
# [2] = parameters: method as in Yang et al., 2017; conditions: ref Yang et al., 2017, cited from earlier work; for form excreted: material conservation within 24 h after oral administration of SZ-A; for oral absolute bioavailability / pharmacokinetic profile versus dose: rats; for oral absolute bioavailability: after oral administration of SZ-A; for pharmacokinetic profile versus dose: oral SZ-A 20–500 mg/kg
# [3] = parameters: method as in Mackay et al., 2003; conditions: rats; ref Mackay et al., 2003; cited from earlier work
# [4] = parameters: method as in Nakagawa et al., 2007; conditions: rats, after oral gavage of DNJ; ref Nakagawa et al., 2007; cited from earlier work
SMILES,effect on rat CYP2C11 (rat CYP2C11),metabolites found [1],form excreted [2],oral absolute bioavailability [2],pharmacokinetic profile versus dose [2],form excreted [3],DNJ metabolites in plasma [4]
"OC[C@H]1NC[C@@H](O)[C@@H]1O [DAB, 1,4-dideoxy-1,4-imino-D-arabinitol]",mild activation effect,no detectable phase I and phase II metabolites,mainly excreted in their original forms,78.23% and > 70%,non-linear pharmacokinetics,mainly excreted unchanged,–
"OC[C@H]1NC[C@H](O)[C@@H](O)[C@@H]1O [DNJ, 1-deoxynojirimycin]",mild activation effect,no detectable phase I and phase II metabolites,mainly excreted in their original forms,72.41% and > 70%,non-linear pharmacokinetics,–,did not detect any DNJ metabolites
"OC[C@H]1NCC[C@@H](O)[C@@H]1O [FA, fagomine]",mild activation effect,only trace oxidation products,mainly excreted in their original forms,77.50% and > 70%,non-linear pharmacokinetics,–,–
